Test results: US20130345199A1, “1-[M-CARBOXAMIDO(HETERO)ARYL-METHYL]-PIPERIDINE-4-CARBOXAMIDE DERIVATIVES” (Actelion Pharmaceuticals Ltd., priority 2012, published 2013)

Biological target: T1, CXCR7 (Homo sapiens, UniProt P25106)
T1 construct: host or cells: CHO-K1 (PathHunter CXCR7 b-arrestin cell line, stably transfected)
Experiment: PathHunter CHO-K1 CXCR7 b-arrestin assay (agonistic activity)
Format: cell-based
Conditions: PathHunter CHO-K1 CXCR7 b-arrestin cell line, 90 minutes at 37° C.
Method: The […] receptor and CXCR7 agonistic activities of the compounds of formula (I) are determined in accordance with the following experimental method.
The assay is using the PathHunter™ CHO-K1 CXCR7 b-arrestin cell line from DiscoverX. The system is based on the Enzyme Fragment Complementation Technology. Two complementing fragments of the b-galactosidase enzyme are expressed within stably transfected cells. The larger portion of b-gal, termed EA for Enzyme Acceptor, is fused to the C-terminus of b-arrestin 2. The smaller fragment, termed ProLink™ tag, is fused to CXCR7 at the C-terminus. Upon activation, b-arrestin is recruited which forces the interaction of ProLink and EA, allowing complementation of the two fragments of b-gal and the formation of a functional enzyme which is capable of hydrolysing the substrate and generating a chemiluminescent signal.
CHO-K1 CXCR7 b-arrestin cells are detached from culture dishes with a cell dissociation buffer (Invitrogen, #13151-014) and collected in growing medium (F12HAMS 90% (v/v)/FCS 10% (v/v), Penicilin/streptomycin 1% (v/v)). 5000 cells per well (in 20 μl) are seeded in a 384 well plate (white-walled, clear bottom; BD Falcon #353274). The plate is incubated at 37° C./5% CO2 for 24 hours. Medium is then replaced by […] (Invitrogen #31985) for 3 to 4 hours. Test compounds are dissolved at 10 mM in DMSO and serially diluted in DMSO to 200× of the final concentration for dose response curves. Compounds are then diluted 1:33.3 in HBSS1X. 5 μl/well of HBSS1X/20 mM HEPES/0.2% BSA are added to the assay plate followed by addition of 5 μl/well of diluted compounds. CXCL12 (Peprotech #300-28A) may be used as a reference agonist. The plate is incubated for 90 minutes at 37° C. 12 μl of detection reagent (Path Hunter Detection Kit, DiscoveRx, #93-0001) is transferred to the assay plate and to the plate is incubated for 1 hour at room temperature. Luminescent signal is read in a microplate reader (FLUOstar Optima, bmg). The calculated EC50 values may fluctuate depending on the daily cellular assay performance. Fluctuations of this kind are known to those skilled in the art.

T1 sequence (P25106 whole entry): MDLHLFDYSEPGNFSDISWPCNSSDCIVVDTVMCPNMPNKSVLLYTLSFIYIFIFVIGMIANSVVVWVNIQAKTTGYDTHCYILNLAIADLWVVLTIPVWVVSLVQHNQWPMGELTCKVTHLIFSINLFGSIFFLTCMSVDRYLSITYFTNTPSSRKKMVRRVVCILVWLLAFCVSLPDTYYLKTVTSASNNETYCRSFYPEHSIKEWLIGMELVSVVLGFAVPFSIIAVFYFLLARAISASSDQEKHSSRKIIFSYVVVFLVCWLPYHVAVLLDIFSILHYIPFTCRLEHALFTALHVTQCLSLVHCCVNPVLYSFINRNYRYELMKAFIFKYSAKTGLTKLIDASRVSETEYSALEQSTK

Molecule	EC50 [nM]
1-[3-(3-Fluoro-benzoylamino)-benzyl]-piperidine-4-carboxylic acid cyclohexylamide [Example 1.103]	6
1-{4-Chloro-3-[(2-phenyl-cyclopropanecarbonyl)-amino]-benzyl}-piperidine-4-carboxylic acid cyclohexylamide [Example 1.161]	26
5-Chloro-N-[4-chloro-3-(4-cyclopentylcarbamoyl-piperidin-1-ylmethyl)-phenyl]-nicotinamide [Example 1.227]	0.6
O=C(NC1CCCCC1)C1CCN(Cc2cccc(NC(=O)[C@@H]3C[C@@H]4CC[C@H]3C4)c2)CC1 (racemic) [Example 1.018, Rac-1-{3-[((1S,2R,4R)-Bicyclo[2.2.1]heptane-2-carbonyl)-amino]-benzyl}-piperidine-4-carboxylic acid cyclohexylamide]	5
O=C(Nc1cccc(CN2CCC(C(=O)NC3CC4CCC3C4)CC2)c1)c1ccc(Cl)cc1 (racemic) [Example 2.008]	6
CC(NC(=O)C1CCN(Cc2cccc(NC(=O)c3ccc(Cl)cc3)c2)CC1)C1CCCCC1 (racemic) [Example 2.016]	134
CC(NC(=O)C1CCN(Cc2cccc(NC(=O)c3ccc(Cl)cc3)c2)CC1)c1cccc2ccccc12 (racemic) [Example 2.018]	349
O=C(Nc1cccc(CN2CCC(C(=O)NC3CCCc4ccccc43)CC2)c1)c1ccc(Cl)cc1 (racemic) [Example 2.019]	40
O=C(Nc1cccc(CN2CCC(C(=O)NC3CCc4ccccc43)CC2)c1)c1ccc(Cl)cc1 (racemic) [Example 2.020]	21
Cc1cncc(C(=O)Nc2cccc(CN3CCC(C(=O)N4CCCC4C)CC3)c2)c1 (racemic) [Example 2.050]	26
CC(C)C(CO)NC(=O)C1CCN(Cc2cccc(NC(=O)c3cccc(C(F)(F)F)n3)c2)CC1 (racemic) [Example 2.064]	87
Cc1cncc(C(=O)Nc2cccc(CN3CCCC(C(=O)NCC4CC4)CC3)c2)c1 (racemic) [Example 2.084]	304
CCC(C)(C)NC(=O)C1CCCN(Cc2cccc(NC(=O)c3cncc(C)c3)c2)CC1 (racemic) [Example 2.085]	68
CC(C)(C)NC(=O)C1CCCN(Cc2cccc(NC(=O)c3cccc(C(F)(F)F)n3)c2)CC1 (racemic) [Example 2.086]	10
CCC(C)NC(=O)C1CCCN(Cc2cccc(NC(=O)c3cccc(C(F)(F)F)n3)c2)CC1 (racemic) [Example 2.087]	6
CCC(C)(C)NC(=O)C1CCCN(Cc2cccc(NC(=O)c3cccc(C(F)(F)F)n3)c2)CC1 (racemic) [Example 2.088]	19
O=C(Nc1cccc(CN2CCCC(C(=O)NCC3CC3)CC2)c1)c1cccc(C(F)(F)F)n1 (racemic) [Example 2.089]	36
O=C(Nc1cccc(CN2CCC(C(=O)NC3CCCCC3)CC2)c1)c1ccc(Cl)cc1 [Example 1.001, 1-[3-(4-Chloro-benzoylamino)-benzyl]-piperidine-4-carboxylic acid cyclohexylamide]	2
O=C(Nc1cccc(CN2CCC(C(=O)NC3CCCCC3)CC2)c1)c1cccc(C(F)(F)F)n1 [Example 1.002, 6-Trifluoromethyl-pyridine-2-carboxylic acid [3-(4-cyclohexylcarbamoyl-piperidin-1-ylmethyl)-phenyl]-amide]	1
O=C(Nc1cccc(CN2CCC(C(=O)NC3CCCCC3)CC2)c1)c1cccnc1 [Example 1.003, N-[3-(4-Cyclohexylcarbamoyl-piperidin-1-ylmethyl)-phenyl]-nicotinamide]	23
O=C(Nc1cccc(CN2CCC(C(=O)NC3CCCC3)CC2)c1)c1ccc(Cl)cc1 [Example 2.001, 1-[3-(4-Chloro-benzoylamino)-benzyl]-piperidine-4-carboxylic acid cyclopentylamide]	0.9
CNC(=O)C1CCN(Cc2cccc(NC(=O)c3ccc(Cl)cc3)c2)CC1 [Example 2.002]	3
CC(C)NC(=O)C1CCN(Cc2cccc(NC(=O)c3ccc(Cl)cc3)c2)CC1 [Example 2.003]	0.8
